Test results from article PMC5897986 (Frontiers in Endocrinology, 2018).

Legend:
[1] = test system: metastatic, well- or moderately differentiated, non-functional enteropancreatic NET; conditions: patients, CLARINET trial, placebo 18 months; cited from earlier work
Source text: Somatostatin analogs (SSAs) are well-established antisecretory drugs with a favorable safety profile that have been used as first-line treatment to control hormone hypersecretion in functionally active neuroendocrine tumors (NET) for more than 30 years ([1], [2]). […] The relevance of SSAs in antiproliferative treatment has been a matter of debate for the past two decades.

[2] = test system: SSTR-binding sites at the cell surface of UMC-11 cells; test: competitive [125I]-Tyr11-SST14 radioligand binding assay, UMC-11 cells; parameters: species or system human; conditions: UMC-11 whole cells, 30 min at 37°C, unlabeled peptide 0.01 nM–10 µM, gamma counter; read-out: IC50, displacement of [125I]-Tyr11-SST14
Protocol: (§1) Peptide iodination and radioligand-binding assays were performed as previously described ([21]). Briefly, 10 nmol Tyr^11-somatostatin-14 (Tyr^11–SST14, Bachem, Bubendorf, Switzerland) were iodinated by the chloramin T method ([22]) with 1 mCi carrier-free Na^125I (NEZ033L010MC, Perkin Elmer, Waltham, MA, USA) and purified by HPLC (Analytic HPLC 1200 Series, Agilent, Santa Clara, CA, USA) (see Figure S1 in Supplementary Material). For competitive radioligand binding assays, 40,000 cells were seeded in 96-well plates and grown overnight. The next day, cells were incubated in binding buffer (50 mM Hepes, pH 7.4, 5 mM MgCl2, 1 mM CaCl2, 0.5% w/v BSA, cOmplete protease inhibitors) containing 100,000 counts per minute (cpm) [^125I]-Tyr^11-SST14 and increasing concentrations of unlabeled peptide. After 30 min at 37°C, cells were washed with ice-cold washing buffer (50 mM Tris–HCl, pH 7.4, 125 mM NaCl, 0.05% w/v BSA), lysed with 1 N NaOH, transferred to vials, and measured in a gamma counter (Wallac 1470 Wizard, Perkin Elmer, Waltham, MA, USA). The obtained cpm values were analyzed with GraphPad Prism 5.04, and IC50 values were calculated by non-linear regression (one site—fit logIC50, least squares fit).

[3] = test system: SSTR-binding sites at the cell surface of LCC-18 cells; test: competitive [125I]-Tyr11-SST14 radioligand binding assay, LCC-18 cells; parameters: species or system human; conditions: only background binding, unlabeled peptide 0.01 nM–10 µM
Protocol: as §1

[4] = test system: human SSTR2 in QGP-1-SSTR2 cells; test: microscopic SSTR2 internalization assay; assay type: cell-based; conditions: QGP-1-SSTR2, 1 µM ligand, 30 min at 37°C, confocal microscopy
Protocol: (§2) Cells were grown on coverslips for at least 24 h. […] Cells were washed with PBS, fixated in 1:1 acetone/methanol for 2 min, and incubated with anti-SSTR2 primary antibody (sc365502, Santa Cruz Biotechnology, Dallas, TX, USA) diluted 1:50 in PBS overnight at 4°C. After washing with PBS, cells were incubated with a Cy3-conjugated goat anti-mouse secondary antibody (#115-165-146, Jackson ImmunoResearch, West Grove, PA, USA) diluted 1:1,000 in PBS for 1 h at room temperature. After washing with PBS, coverslips were briefly dipped into 96% ethanol, air-dried, and mounted on glass slides with Immu-Mount (Thermo Fisher Scientific, Waltham, MA, USA). Mounted cells were imaged using a confocal laser scanning microscope (LSM510, Carl Zeiss, Jena, Germany) using a helium–neon laser at 543 nm, LP560 emission filter, and 40× or 63× NeoFluar oil immersion objectives. RIN-1038-SSTR2-GFP cells were not immunostained after fixation, but otherwise treated the same. To visualize GFP fluorescence, an argon laser at 488 nm, LP505 emission filter was utilized on the same microscope.

[5] = test system: human SSTR2 in BON-SSTR2 cells; test: microscopic SSTR2 internalization assay; assay type: cell-based; conditions: BON-SSTR2, 1 µM ligand, 30 min at 37°C, confocal microscopy
Protocol: as §2

[6] = test system: SSTR-binding sites at the cell surface of BON cells; test: competitive [125I]-Tyr11-SST14 radioligand binding assay, BON cells; parameters: species or system human; conditions: BON whole cells, 30 min at 37°C, unlabeled peptide 0.01 nM–10 µM, gamma counter; read-out: IC50, displacement of [125I]-Tyr11-SST14
Protocol: as §1

[7] = test system: SSTR-binding sites at the cell surface of H727 cells; test: competitive [125I]-Tyr11-SST14 radioligand binding assay, H727 cells; parameters: species or system human; conditions: only background binding, unlabeled peptide 0.01 nM–10 µM
Protocol: as §1

[8] = test system: SSTR-binding sites at the cell surface of QGP-1 cells; test: competitive [125I]-Tyr11-SST14 radioligand binding assay, QGP-1 cells; parameters: species or system human; conditions: only background binding, unlabeled peptide 0.01 nM–10 µM
Protocol: as §1

## lanreotide
[1]
  median progression-free survival: not reached

## somatostatin-14
[2]
  IC50: 0.7 ± 0.29 nM
[3]
  displacement of [125I]-Tyr11-SST14 binding: no displacement
[4]
  SSTR2 internalization / redistribution: functional, ligand-dependent SSTR2 internalization
[5]
  SSTR2 internalization / redistribution: functional, ligand-dependent SSTR2 internalization
[6]
  IC50: 0.5 ± 0.16 nM
[7]
  displacement of [125I]-Tyr11-SST14 binding: no displacement
[8]
  displacement of [125I]-Tyr11-SST14 binding: no displacement
